{"source": "paper PMC7377239", "about": "“Cardiovascular Effects of Polychlorinated Biphenyls and Their Major Metabolites” (Environmental Health Perspectives, 2020)", "key": {"[1]": {"test_system": "iCell endothelial cells (human iPSC-derived ECs)", "assay": "High-content imaging cytotoxicity in iCell endothelial cells, 24 h", "type": "cell-based", "settings": "Homo sapiens, Endothelial cell, 24 hr; for viability at 0.1 µM / activity at 0.1 µM: 0.10 µM", "method_in_brief": "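Human iPSC-derived endothelial cells (passages 1–5) were grown to a fibronectin-coated monolayer, then exposed 24 h at 37 °C with 0.5% DMSO vehicle. Staining was Hoechst 33342, MitoTracker Orange and calcein AM, read by high-content imaging. Point of departure came from 4-parameter logistic fits, with a 1-SD vehicle cutoff and 100 µM as the top concentration.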"}, "[2]": {"test_system": "HUVECs", "assay": "High-content imaging cytotoxicity in HUVECs, 24 h", "type": "cell-based, human", "settings": "Homo sapiens, HUVEC, 24 h, HUVEC; for viability at 0.01 µM / activity at 0.01 µM / viability at 0.1 µM / activity at 0.1 µM / viability at 1 µM / activity at 1 µM / viability at 10 µM / activity at 10 µM / viability at 100 µM / activity at 100 µM: 0.00 µM = 100.00; for viability at 0.1 µM / activity at 0.1 µM: 0.10 µM", "method_in_brief": "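Point-of-departure values derive from four-parameter logistic fits of vehicle-normalized imaging phenotypes (Hoechst 33342, MitoTracker Orange, calcein AM). The fits follow 24 h exposure of HUVEC monolayers at 37°C and 5% CO2, with a top tested concentration of 100μM.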"}, "[3]": {"settings": "iPSC-EC, 0.00 µM control = 100.00, read-out: endo.cyto.24hr"}, "[4]": {"settings": "iPSC-EC, 0.00 µM control = 100.00, read-out: endo.mito.24hr"}, "[5]": {"settings": "iPSC-EC, 0.00 µM control = 100.00, read-out: endo.mitoint.24hr"}, "[6]": {"settings": "iPSC-EC, 0.00 µM control = 100.00, read-out: endo.nma.24hr"}, "[7]": {"settings": "iPSC-EC, 0.00 µM control = 100.00, read-out: endo.tc.24hrs"}, "[8]": {"settings": "HUVECs, 24 hr, read-out: huvec.cyto.24hr"}, "[9]": {"settings": "HUVECs, 24 hr, read-out: huvec.mito.24hr"}, "[10]": {"settings": "HUVECs, 24 hr, read-out: huvec.mitoint.24hr"}, "[11]": {"settings": "HUVECs, 24 hr, read-out: huvec.nma.24hr"}, "[12]": {"settings": "HUVECs, 24 hrs, read-out: huvec.tc.24hrs"}}, "note": "Like-named read-outs stand apart in the source and are kept apart here."}
{"smiles": "O=C1C=CC(=O)C(c2ccc(Cl)cc2)=C1", "note": "[4-Cl-BQ, 2-(4-Chlorophenyl)benzo-2,5-quinone]", "values": [{"measurement": "minimal effective concentration", "setting": "[1]; endothelial cells (endo), cyto, read-out: POD endo.cyto.24hr", "result": 3.82, "unit": "µM"}, {"measurement": "minimal effective concentration", "setting": "[1]; endothelial cells (endo), mito, read-out: POD endo.mito.24hr", "result": 3.82, "unit": "µM"}, {"measurement": "minimal effective concentration", "setting": "[1]; endothelial cells (endo), mitoint, read-out: POD endo.mitoint.24hr", "result": 14.2, "unit": "µM"}, {"measurement": "minimal effective concentration", "setting": "[1]; endothelial cells (endo), nma, read-out: POD endo.nma.24hr", "result": 13, "unit": "µM"}, {"measurement": "minimal effective concentration", "setting": "[1]; endothelial cells (endo), tc, read-out: POD endo.tc.24hr", "result": 2.56, "unit": "µM"}, {"measurement": "viability at 0.01 µM", "setting": "[1]; [3]", "result": 90, "unit": "%"}, {"measurement": "activity at 0.01 µM", "setting": "[1]; [4]", "result": 90.5, "unit": "%"}, {"measurement": "activity at 0.01 µM", "setting": "[1]; [5]", "result": 114, "unit": "%"}, {"measurement": "activity at 0.01 µM", "setting": "[1]; [6]", "result": 105, "unit": "%"}, {"measurement": "viability at 0.01 µM", "setting": "[1]; [7]", "result": 90, "unit": "%"}, {"measurement": "viability at 0.1 µM", "setting": "[1]; [3]", "result": 89.7, "unit": "%"}, {"measurement": "activity at 0.1 µM", "setting": "[1]; [4]", "result": 89.9, "unit": "%"}, {"measurement": "activity at 0.1 µM", "setting": "[1]; [5]", "result": 103, "unit": "%"}, {"measurement": "activity at 0.1 µM", "setting": "[1]; [6]", "result": 104, "unit": "%"}, {"measurement": "viability at 0.1 µM", "setting": "[1]; [7]", "result": 89.7, "unit": "%"}, {"measurement": "viability at 1 µM", "setting": "[1]; [3]", "result": 93.1, "unit": "%"}, {"measurement": "activity at 1 µM", "setting": "[1]; [4]", "result": 93.1, "unit": "%"}, {"measurement": "activity at 1 µM", "setting": "[1]; [5]", "result": 99.3, "unit": "%"}, {"measurement": "activity at 1 µM", "setting": "[1]; [6]", "result": 103, "unit": "%"}, {"measurement": "viability at 1 µM", "setting": "[1]; [7]", "result": 93.1, "unit": "%"}, {"measurement": "viability at 10 µM", "setting": "[1]; [3]", "result": 87.8, "unit": "%"}, {"measurement": "activity at 10 µM", "setting": "[1]; [4]", "result": 87.7, "unit": "%"}, {"measurement": "activity at 10 µM", "setting": "[1]; [5]", "result": 95.2, "unit": "%"}, {"measurement": "activity at 10 µM", "setting": "[1]; [6]", "result": 102, "unit": "%"}, {"measurement": "viability at 10 µM", "setting": "[1]; [7]", "result": 87.8, "unit": "%"}, {"measurement": "viability at 100 µM", "setting": "[1]; [3]", "result": 12.1, "unit": "%"}, {"measurement": "activity at 100 µM", "setting": "[1]; [4]", "result": 3.06, "unit": "%"}, {"measurement": "activity at 100 µM", "setting": "[1]; [5]", "result": 30.1, "unit": "%"}, {"measurement": "activity at 100 µM", "setting": "[1]; [6]", "result": 161, "unit": "%"}, {"measurement": "viability at 100 µM", "setting": "[1]; [7]", "result": 31.3, "unit": "%"}, {"measurement": "minimal effective concentration", "setting": "[1]; iPSC-EC, top concentration 100.00 µM, read-out: endo.cyto.24hr POD", "result": 3.82, "unit": "µM"}, {"measurement": "minimal effective concentration", "setting": "[1]; iPSC-EC, top concentration 100.00 µM, read-out: endo.mito.24hr POD", "result": 3.82, "unit": "µM"}, {"measurement": "minimal effective concentration", "setting": "[1]; iPSC-EC, top concentration 100.00 µM, read-out: endo.mitoint.24hr POD", "result": 14.2, "unit": "µM"}, {"measurement": "minimal effective concentration", "setting": "[1]; iPSC-EC, top concentration 100.00 µM, read-out: endo.nma.24hr POD", "result": 13, "unit": "µM"}, {"measurement": "minimal effective concentration", "setting": "[1]; iPSC-EC, top concentration 100.00 µM, read-out: endo.tc.24hrs POD", "result": 2.56, "unit": "µM"}, {"measurement": "minimal effective concentration", "setting": "[2]; cyto, 24 hr, read-out: POD huvec.cyto.24hr", "result": 0.00637, "unit": "µM"}, {"measurement": "minimal effective concentration", "setting": "[2]; mito, 24 hr, read-out: POD huvec.mito.24hr", "result": 0.08, "unit": "µM"}, {"measurement": "minimal effective concentration", "setting": "[2]; mitoint, 24 hr, read-out: POD huvec.mitoint.24hr", "result": 0.68, "unit": "µM"}, {"measurement": "minimal effective concentration", "setting": "[2]; nma, 24 hr, read-out: POD huvec.nma.24hr", "result": 0.53, "unit": "µM"}, {"measurement": "minimal effective concentration", "setting": "[2]; tc, 24 hr, read-out: POD huvec.tc.24hr", "result": 0.00637, "unit": "µM"}, {"measurement": "viability at 0.01 µM", "setting": "[2]; [8]", "result": 89.2, "unit": "%"}, {"measurement": "activity at 0.01 µM", "setting": "[2]; [9]", "result": 87.8, "unit": "%"}, {"measurement": "activity at 0.01 µM", "setting": "[2]; [10]", "result": 92.4, "unit": "%"}, {"measurement": "activity at 0.01 µM", "setting": "[2]; [11]", "result": 101, "unit": "%"}, {"measurement": "viability at 0.1 µM", "setting": "[2]; [8]", "result": 101, "unit": "%"}, {"measurement": "activity at 0.1 µM", "setting": "[2]; [9]", "result": 101, "unit": "%"}, {"measurement": "activity at 0.1 µM", "setting": "[2]; [10]", "result": 105, "unit": "%"}, {"measurement": "activity at 0.1 µM", "setting": "[2]; [11]", "result": 101, "unit": "%"}, {"measurement": "viability at 1 µM", "setting": "[2]; [8]", "result": 75.5, "unit": "%"}, {"measurement": "activity at 1 µM", "setting": "[2]; [9]", "result": 69.3, "unit": "%"}, {"measurement": "activity at 1 µM", "setting": "[2]; [10]", "result": 58.6, "unit": "%"}, {"measurement": "activity at 1 µM", "setting": "[2]; [11]", "result": 81.8, "unit": "%"}, {"measurement": "viability at 10 µM", "setting": "[2]; [8]", "result": 56, "unit": "%"}, {"measurement": "activity at 10 µM", "setting": "[2]; [9]", "result": 30.5, "unit": "%"}, {"measurement": "activity at 10 µM", "setting": "[2]; [10]", "result": 10.8, "unit": "%"}, {"measurement": "activity at 10 µM", "setting": "[2]; [11]", "result": 74.2, "unit": "%"}, {"measurement": "viability at 100 µM", "setting": "[2]; [8]", "result": 87.4, "unit": "%"}, {"measurement": "activity at 100 µM", "setting": "[2]; [9]", "result": 1.29, "unit": "%"}, {"measurement": "activity at 100 µM", "setting": "[2]; [10]", "result": 44, "unit": "%"}, {"measurement": "activity at 100 µM", "setting": "[2]; [11]", "result": 73.5, "unit": "%"}, {"measurement": "minimal effective concentration", "setting": "[2]; HUVECs, 24 hr, top concentration 100.00 µM, read-out: huvec.cyto.24hr POD", "result": 0.00637, "unit": "µM"}, {"measurement": "minimal effective concentration", "setting": "[2]; HUVECs, 24 hr, top concentration 100.00 µM, read-out: huvec.mito.24hr POD", "result": 0.08, "unit": "µM"}, {"measurement": "minimal effective concentration", "setting": "[2]; HUVECs, 24 hr, top concentration 100.00 µM, read-out: huvec.mitoint.24hr POD", "result": 0.68, "unit": "µM"}, {"measurement": "minimal effective concentration", "setting": "[2]; HUVECs, 24 hr, top concentration 100.00 µM, read-out: huvec.nma.24hr POD", "result": 0.53, "unit": "µM"}, {"measurement": "viability at 0.01 µM", "setting": "[2]; [12]", "result": 89.3, "unit": "%"}, {"measurement": "viability at 0.1 µM", "setting": "[2]; [12]", "result": 101, "unit": "%"}, {"measurement": "viability at 1 µM", "setting": "[2]; [12]", "result": 75.5, "unit": "%"}, {"measurement": "viability at 10 µM", "setting": "[2]; [12]", "result": 56, "unit": "%"}, {"measurement": "viability at 100 µM", "setting": "[2]; [12]", "result": 99.4, "unit": "%"}, {"measurement": "minimal effective concentration", "setting": "[2]; HUVECs, 24 hrs, top concentration 100.00 µM, read-out: huvec.tc.24hrs POD", "result": 0.00637, "unit": "µM"}]}
